# How the values were obtained:
# [1] = target: HIV reverse transcriptase (Human immunodeficiency virus type 1 group M subtype B, UniProt P04585); test: HIV reverse transcriptase inhibition primer extension experiment (incorporation of nucleoside triphosphates into DNA by RT, chain termination); type: biochemical; settings: triphosphate form; template SEQ ID NO:1, primer SEQ ID NO:2; terminated product 38 instead of 53 base pairs; FIG. 2
# From the text: For primer extension experiments (Example 3), some of the novel nucleoside analog inhibitors were converted to triphosphate form in vitro, such as occurs in mammalian cells by endogenous enzymes.
# Once incorporated into the growing DNA strand, transcription is terminated because the nucleosides lack the necessary 3′ hydroxyl group.
# The method is analogous to the Sanger sequencing. Specifically, in the presence of a template and four natural nucleotide triphosphates (dATP, dGTP, dCTP and dTTP), a radiolabeled primer is extended to full length by RT, as indicated by a single band on the sequencing gel. Addition of ddTTP, which competes with dTTP, results in the termination of primer extension at the positions of nucleotides opposite adenosine in the template strand. AZTTP, which is also a chain terminator, gives a similar result as ddTTP. If a compounds, e.g., (V) to (VII), in triphosphate form has a branched 3′-group that cannot be accommodated in the 3′-pocket of RT, the compound is not a substrate for RT. Therefore, it will be unable to compete with dTTP, resulting in a completed, extended product. […]
# Template cagatagtcttcacgaggcaggtcgtcttgtcctggtActcgtttgcgttccg (SEQ ID NO:1) and primer […] […] With this template and primer, there is only one adenosine in the template to be read into the growing chain as a thymidine (capital and boldface in SEQ ID NO:1). […]
# [2] = taken with ddI (Videx or Videx EC); cited from earlier work
# [3] = 300 mg x 2/day; cited from earlier work
# [4] = nitrogen at the 3'-branched group; Hossain et al., 1993; Huang et al., 1995; cited from earlier work
compound,measurement,setting,value
"Cc1cn([C@H]2C[C@H](N=[N+]=[N-])[C@@H](CO[P@](=O)(O)O[P@](=O)(O)OP(=O)(O)O)O2)c(=O)[nH]c1=O [AZTTP, AZT-triphosphate]",chain termination of the primer extension opposite the only A in the template (substrate for RT),[1],chain terminators
"CC(C)OC(=O)OCOP(=O)(CO[C@H](C)Cn1cnc2c(N)ncnc21)OCOC(=O)OC(C)C [Viread, tenofovir DF]",increase of ddI levels in the blood,[2],"≤ 60%, causing increased"
"Nc1nc(NC2CC2)c2ncn([C@H]3C=C[C@@H](CO)C3)c2n1 [Ziagen, abacavir]","Serious allergic reactions, share of patients",[3],Serious allergic reactions in about 3-5% of patients.
Cc1cn([C@H]2CC[C@@H](COP(=O)(O)OP(=O)(O)OP(=O)(O)O)O2)c(=O)[nH]c1=O [ddTTP],chain termination of the primer extension opposite the only A in the template (substrate for RT),[1],chain terminators
Cc1cn([C@H]2CC([N+](=O)[O-])[C@@H](CO)O2)c(=O)[nH]c1=O (some centres unmarked) [molecule (I)],effectiveness in vivo,[4],ineffective in vivo
